Experimental data as given in patent US8168384B2, “Non-thiopurine methyltransferase related effects in 6-mercaptopurine therapy” (Guy's and St. Thomas' NHS Foundation Trust, priority 2007, dated 2012).

Assays:
[1] = remaining non-/partial responder patients
[2] = Cohort of patients starting azathioprine therapy: clinical response, side-effects and association with XDH, MOCOS and AOX SNP genotype; conditions: cohort of 168 patients starting azathioprine therapy

difference in TGN levels between wild-type and heterozygous for the AOX SNP [1]: no significant difference
SMILES: Cn1cnc([N+](=O)[O-])c1Sc1ncnc2nc[nH]c12 [azathioprine, 6-(1-methyl-4-nitro-5-imidazolylthio) purine]
partial responders [2]: 7 patients
patients deemed to have no response to azathioprine [2]: 35 patients
